The record followed here is paper PMC9424909, “Rutin alleviated acrolein-induced cytotoxicity in Caco-2 and GES-1 cells by forming a cyclic hemiacetal product” (Frontiers in Nutrition, 2022).

What is called IC50 is the concentration that gives 50% inhibition.

Data set [1] in a line: elimination of ACR by rutin in PBS (DNPH derivatization, HPLC). The note with it: for amount of ACR reduced compared with the initial content / content of ACR (residual) / content of residual ACR: 2 h; for content of ACR (residual): rutin/ACR 1/1, initial content 200 μmol. The procedure:
In the present study, three variables were taken into consideration, namely temperature (40–100°C), reaction duration (0.5–8 h), and molar ratio of rutin to ACR (from 1/2 to 4/1), and the remaining level of ACR was determined. A mixture of rutin, ACR, and 20 mL of PBS was prepared in a 50 mL three-necked flask and reacted under light-proof conditions. The different variables were studied separately while keeping other conditions constant as follows: temperature of 80°C, reaction time of 2 h, and the molar ratio of rutin/ACR of 1/1. At the end of each reaction, ACR was derivatized with DNPH, and its content was determined as below.
The stock solution equivalent to ACR concentration of […] was prepared by dissolving 10.7 mg of ACR-DNPH standard with 25 mL of acetonitrile (ACN). And the ACR-DNPH standard curve (2 to 100 μg/mL) was established by serial dilutions of the stock solution. The HPLC conditions were as below. An Agilent 1,260 Infinity II HPLC system (Agilent Technologies, Palo Alto, CA) equipped with a DAD and a Zorbax SB-C18 column (250 × 4.6 mm; 5 μm; Agilent Technologies) was utilized for the determination of ACR-DNPH. The separation was conducted under isocratic conditions by introducing 50% A (water) and 50% B (ACN) at a flow rate of 1.0 mL/min for 15 min. The temperature was 35°C, the injection volume was 20 μL, and the detection wavelength was set at 365 nm. According to the retention time as well as the peak area, the standard curve of ACR-DNPH derivates was obtained.
DNPH was recrystallized as the followings before use: excess DNPH was added into 200 mL of methanol (MeOH) heating for 1 h, and the supernatant was collected and further heated at 60°C to remove 95% of the solvent; the crystals were then washed twice with 100 mL of MeOH, transferred to another clean beaker, and co-heated with 200 mL of MeOH; and the resulting crystal was stored under seal. The 0.1 M DNPH solution was prepared by dissolving 5.0548 g of the purified DNPH in 250 mL of ACN containing 5 mL of 10% phosphoric acid solution.
Derivatization of ACR with DNPH was conducted in accordance with Reilly et al. ([36]). In short, one milliliter of each sample was incubated with 1 mL of diluted DNPH solution (0.01 M) for 40 min at 40°C, followed by extraction with 10 mL of MeOH/water (75: 25, v/v). After centrifugation (6,000 rpm, 10 min), the supernatant was collected and was further extracted with 10 mL of dichloromethane to obtain the DNPH derivatives. Prior to HPLC analysis as above, the DNPH derivatives were re-dissolved in 1 mL of HPLC grade ACN and passed through a 0.45 μm filter (Bie & Berntsen, Rødovre, Denmark).

For data set [2], the system named is Caco-2 cells. The data set can be described thus: cell survival, CCK-8 assay. To be noted: for cell viability (viable cell number): incubation 24 h. The data set is classed as cell-based, human. The procedure: (§1) The Caco-2 cell line and GES-1 cell line were obtained from iCell Bioscience (Shanghai, China). As described by Chai et al. ([40]) with a bit modification, the Caco-2 cells were cultured within a medium composed of DMEM supplemented with 1% (v/v) NEAA, 10% (v/v) FBS, and penicillin and streptomycin (100 U/mL). GES-1 cells were cultivated according to Xu et al. ([41]) with slight modifications as follows: DMEM medium including 1% (v/v) NEAA, 10% (v/v) FBS, and penicillin and streptomycin (100 U/mL). Cells were all maintained in a humidified incubator containing 5% CO2 and 95% air at 37°C.
(§2) The effects of ACR and RAC on cell survival (both Caco-2 and GES-1 cells) were measured by the CCK-8 assay ([41]). Briefly, cells (1 × 10^4 cells/well) were seeded into a 96-well plate and cultivated overnight. […] After cells were rinsed twice with PBS and resuspended in 100 μL of DMEM supplemented with 10% FBS, 10 μL of CCK-8 solution was added into each well and the plate was maintained for 1 h in the incubator. The plate was read at 450 nm on a microplate reader (BioTek, Epoch 2, USA), and all experiments were performed thrice. Cell viability was expressed as a percentage of the control group as shown below:
(§3) Cell viability (%) = A sample/A control × 100%
(§4) Where A sample was the absorbance (Abs) of the cells incubated with different concentrations of sample solutions, and A control was the Abs of the cells incubated without sample solution.

Data set [3] has as its system GES-1 cells. The data set can be described thus: cell survival, CCK-8 assay. Type of data set: cell-based, human. To be noted: for cell viability (viable cell number): incubation 24 h. The procedure: as §1, §2, §3, §4
In general terms: Formazan colour is commonly taken as a measure of viable cells.

Data set [4] has as its system Caco-2 cells. Briefly: apoptosis assay, Annexin-V FITC/PI flow cytometry. Type of data set: cell-based, human. The note with it: for apoptotic cells / number of viable cells: 24 h. The procedure: as §1
(§5) Cell apoptosis assay was conducted in refer to Abas et al. ([42]) with modifications. In short, cells at a density of 1 × 10^4 cells/well were seeded in 96-well plates and incubated overnight, followed by exposure to different concentrations of ACR and RAC for another 24 h. After that, cells were rinsed twice with PBS, resuspended in 200 μL of Annexin-binding buffer, and finally stained with Annexin-V FITC and PI (5 μL each) for 10 min at 37°C in darkness. After adding 400 μL of Annexin-binding buffer, the signal intensity was measured using a FACSCalibur (Becton Dickinson, CA, USA) flow cytometry within 1 h, and data was analyzed with FlowJo software (Ashland, OR, USA).
A general note: Flow cytometry measures light scatter and fluorescence of single cells or particles in a stream.

The test system of data set [5] is GES-1 cells. The data set can be described thus: apoptosis assay, Annexin-V FITC/PI flow cytometry. The data set is classed as cell-based, human. To be noted: 24 h. The procedure:
as §1, §5

The test system of data set [6] is Caco-2 cells. Briefly: JC-1 staining, mitochondrial membrane potential (MMP). The note with it: 24 h. The data set is classed as cell-based, human. The procedure:
as §1
(§6) After incubation with different concentrations of samples, the changes of MMP in Caco-2 and GES-1 cells were measured in accordance with Liu et al., with slight modifications ([43]). In brief, cells (1 × 10^4 cells/well) were exposed to different concentrations of ACR and RAC for 24 h, respectively. Then 500 μL of JC-1 staining solution was added into each well and the plate was further incubated at 37°C for 15 min. Cells were then rinsed twice with 1 mL of staining buffer and resuspended with 500 μL of staining buffer prior to MMP determination in the flow cytometry.

In data set [7] the test system is GES-1 cells. The data set is described as above. Type of data set: cell-based, human. The note with it: 24 h. The procedure:
as §1, §6

The structures appear in SMILES notation. Bounds are passed on as bounds.

Consider `C[C@@H]1O[C@@H](OC[C@H]2O[C@@H](Oc3c(-c4ccc(O)c(O)c4)oc4cc(O)cc(O)c4c3=O)[C@H](O)[C@@H](O)[C@@H]2O)[C@H](O)[C@H](O)[C@H]1O` [rutin, quercetin 3-O-rhamnosylglucoside], for which the “amount of ACR reduced compared with the initial content” value in data set [1] (40°C, rutin/ACR 1/1) was found to be 43.36%; in data set [1] (60°C, rutin/ACR 1/1), 82.05%; in data set [1] (80°C, rutin/ACR 1/1), 92.56%; in data set [1] (90°C, rutin/ACR 1/1) it was 96.09%; in data set [1] (100°C, rutin/ACR 1/1), 98.20%. For the same compound, the “content of ACR (residual)” value in data set [1] (40°C) is 113.28 µmol; in data set [1] (60°C), 35.9 µmol; in data set [1] (80°C), 14.88 µmol; in data set [1] (90°C) it was 7.83 µmol; in data set [1] (100°C), 3.60 µmol. Also, the ACR removed result in data set [1] (after 8 h of reaction, 80°C, rutin/ACR 1/1) is reported as “more than 94%”. Moreover, the “content of residual ACR” value in data set [1] (molar ratio rutin/ACR 1/2, 80°C) turned out to be 18.54 µmol; in data set [1] (molar ratio rutin/ACR 4/1, 80°C), 6.69 µmol.
As to `C=CC=O` [ACR, Acrolein], the “cell viability (viable cell number)” value in the data set on Caco-2 cells [2] (Caco-2, 20 μM) was 31.83%; in the data set with Caco-2 cells [2] (Caco-2, 140 μM), 6.97%; with GES-1 cells [3] (GES-1, 20 μM), 49.57%; in the data set on GES-1 cells [3] (GES-1, 140 μM) it was 11.22%. The concentration for half-maximal inhibition (IC50) in the data set with Caco-2 cells [2] (Caco-2, CCK-8, read-out: IC50 (cytotoxicity)) was less than 20 µM; with GES-1 cells [3] (GES-1, CCK-8, read-out: IC50 (cytotoxicity)), less than 20 µM. The “decrease of viable cell number” value in the data set on GES-1 cells [3] (GES-1, up to 140 μM, 24 h as printed) is reported as 88.78%. Moreover, the apoptotic cells in the data set with Caco-2 cells [4] (Caco-2, 20 μM) is recorded as 12.19%; in the data set with Caco-2 cells [4] (Caco-2, 40 μM), 28.59%; with Caco-2 cells [4] (Caco-2, 60 μM) it was 59.50%. The “number of viable cells” value in the data set on Caco-2 cells [4] (Caco-2, 20 μM) was 87.5%; in the data set on Caco-2 cells [4] (Caco-2, 40 μM) it was 71.3%; in the data set with Caco-2 cells [4] (Caco-2, 60 μM) it was 40.0%. In addition, the “apoptotic rate, times higher than that of the same concentration of RAC” value in the data set with Caco-2 cells [4] (Caco-2, 60 μM) is 5.5 times. In addition, the apoptotic rate is reported as 16.28% in the data set on GES-1 cells [5] (GES-1, 20 μM) and 68.10% in the data set with GES-1 cells [5] (GES-1, 60 μM). Further, the “ratio of red/green fluorescence intensity” value in the data set on Caco-2 cells [6] (Caco-2, 20 μM) was determined as 5.32; in the data set with Caco-2 cells [6] (Caco-2, 20 μM, listed as Acrolein) it was 5.32 ± 0.17; in the data set with Caco-2 cells [6] (Caco-2, 40 μM), 2.88 ± 0.09; with Caco-2 cells [6] (Caco-2, 60 μM), 1.97; in the data set with Caco-2 cells [6] (Caco-2, 60 μM, listed as Acrolein) it was 1.97 ± 0.06; in the data set on GES-1 cells [7] (GES-1, 20 μM), 5.68. Further, the “ratio of red/green fluorescence intensity” value worked out at 5.68 ± 0.24 with GES-1 cells [7] (GES-1, 20 μM, listed as Acrolein); 4.29 ± 0.17 with GES-1 cells [7] (GES-1, 40 μM); 2.13 with GES-1 cells [7] (GES-1, 60 μM); 2.13 ± 0.10 in the data set on GES-1 cells [7] (GES-1, 60 μM, listed as Acrolein).
